Measurements taken from patent US8877739B2, “Prophylactic agent or therapeutic agent for diabetes or obesity” (Ajinomoto Co., Inc., priority 2010, dated 2014).

Columns and labels:
Format in all cases: cell-based
[1] = test system: Human cecum-derived cell line NCI-H716; experiment: GLP-1 secretion promoting activity in NCI-H716 cells; details: 37° C., 60 minutes
Protocol: Human cecum-derived cell line NCI-H716 (ATCC No. CCL-251) was cultured in 10% FBS-containing DMEM/Ham's F-12 medium at 37° C. in the presence of 5% CO2. The NCI-H716 cells were plated on a poly-D-lysine-coated 96-well plate in 100,000 cells/well, followed by culturing for 2 days. Prior to the addition of a sample, the wells were washed with Hepes buffer (20 mM Hepes, 146 mM NaCl, 5 mM KCl, 1.5 mM CaCl2, 1 mM MgSO4, 5.5 mM D-glucose, 0.2% BSA, pH 7.4). Then, 50 μl of a solution of the sample in the same buffer, and incubation was performed at 37° C. for 60 minutes. Compounds No. 1 (20 mM), No. 7 (20 mM), No. 21 (20 mM), No. 22 (20 mM), No. 33 (7.5 mM) and No. 34 (7.5 mM) listed in TABLE 1 were used as the sample. As for control, Hepes buffer was used. After the supernatant was collected, the cells were precipitated by centrifugation (5000×g, 1 minute) and the supernatant was recovered. The GLP-1 concentration in the supernatant was measured as follows by the method for GLP-1 quantification using the GLP-1 receptor gene expression cells.
Human GLP-1 receptor gene (SEQ ID NO: 1) was incorporated into pcDNA3.1 in a conventional manner (López de Maturana R, Willshaw A, Kuntzsch A, Rudolph R, Donnelly D. J. Biol. Chem. 2003 Mar. 21; 278 (12): 10195-200.) to construct human GLP-1 receptor gene expression plasmid hGLP-1R/pcDNA3.1. Also, the chimeric gene (SEQ ID NO: 2) of human Gα15 gene and human gustducin gene was incorporated into pcDNA3.1 to construct G-protein expression plasmid Gα15-gust/pcDNA3.1. Using a transfection reagent FuGene 6 (Roche Japan, Inc.), hGLP-1R/pcDNA3.1 and Gα15-gust44/pcDNA3.1 were cotransfected to HEK293E cells (ATCC No. CRL-10852). After incubation in a CO2 incubator for 4 to 6 hours, the cells were suspended in 5% FBS-containing DMEM/Ham F12 and plated onto a poly-D-lysine-coated 96-well plate in 70,000 cells/well. After incubation for 24 hours in a CO2 incubator, changes in fluorescence intensity were begun to monitor immediately after the addition of a sample, using a FlexStation (Molecular Devices) according to the Ca^2+ fluorescence indicator FLIPR Calcium 4 Assay Kit protocol (Molecular Devices). Concentration dependence in response to changes in fluorescence intensity of human GLP-1 (7-36 amide; Peptide Institute, Inc.) was determined and used as a standard curve for quantitative determination of the sample. The expression plasmid used here may be constructed by the methods described in, e.g., Proc. Natl. Acad. Sci. USA. 1992 Sep. 15; 89 (18): 8641-5, FEBS Letters Volume 373, Issue 29, October 1995, Pages 182-186), The Journal of Neuroscience, Aug. 13, 2003, 23 (19): 7376-7380), etc.
The amount of GLP-1 secreted when the measurement value of control obtained using the buffer was made 1 was expressed as a relative value.

[2] = test system: Human cecum-derived cell line NCI-H716; experiment: CCK secretion promoting activity in NCI-H716 cells; details: 37° C., 30 minutes
Protocol: Human cecum-derived cell line NCI-H716 (ATCC No. CCL-251) was cultured in DMEM/Ham's F-12 medium containing 10% FBS at 37° C. in the presence of 5% CO2. The NCI-H716 cells were plated on a poly-L-lysine-coated 24-well plate in 600,000 cells/well, followed by culturing for 2 days. Prior to the addition of a sample, the wells were washed with Hepes buffer (20 mM Hepes, 146 mM NaCl, 5 mM KCl, 1.5 mM CaCl2, 1 mM MgSO4, 5.5 mM D-glucose, 0.02% BSA, pH 7.4). Then, 300 μl of a solution of the sample in the same buffer, and incubation was performed at 37° C. for 30 minutes. Compounds No. 1 (20 mM) No. 7 (2 mM), No. 21 (2 mM), No. 22 (2 mM), No. 33 (0.1 mM) and No. 34 (1 mM) listed in TABLE 2 were used as the sample. For control, Hepes buffer was used. After the supernatant was collected, the cells were precipitated by centrifugation (5000×g, 1 minute). The supernatant was recovered and lyophilized in a Speed Vac Concentrator from Savant Instruments Inc., and 60 μl of water was added thereto for dissolution. The CCK concentration in the solution was determined using an Enzyme Immunoassay Kit (EK-069-04; PHOENIX PHARMACEUTICALS).
The amount of CCK secreted when the measurement value of control obtained using the buffer was made 1 was expressed as a relative value.

human CaSR = molecular target: T1, human CaSR (Homo sapiens, UniProt P41180); experiment: Evaluation of CaSR agonist activity (Ca2+ fluorescence, FLIPR, 293E cells transfected with hCaSR/pcDNA3.1)
T1 construct: expressed in transfected cells; host or cells: 293E cells (HEK293 cells expressing EBNA1, ATCC No. CRL-10852), transient transfection
T1 sequence (P41180 20-1078): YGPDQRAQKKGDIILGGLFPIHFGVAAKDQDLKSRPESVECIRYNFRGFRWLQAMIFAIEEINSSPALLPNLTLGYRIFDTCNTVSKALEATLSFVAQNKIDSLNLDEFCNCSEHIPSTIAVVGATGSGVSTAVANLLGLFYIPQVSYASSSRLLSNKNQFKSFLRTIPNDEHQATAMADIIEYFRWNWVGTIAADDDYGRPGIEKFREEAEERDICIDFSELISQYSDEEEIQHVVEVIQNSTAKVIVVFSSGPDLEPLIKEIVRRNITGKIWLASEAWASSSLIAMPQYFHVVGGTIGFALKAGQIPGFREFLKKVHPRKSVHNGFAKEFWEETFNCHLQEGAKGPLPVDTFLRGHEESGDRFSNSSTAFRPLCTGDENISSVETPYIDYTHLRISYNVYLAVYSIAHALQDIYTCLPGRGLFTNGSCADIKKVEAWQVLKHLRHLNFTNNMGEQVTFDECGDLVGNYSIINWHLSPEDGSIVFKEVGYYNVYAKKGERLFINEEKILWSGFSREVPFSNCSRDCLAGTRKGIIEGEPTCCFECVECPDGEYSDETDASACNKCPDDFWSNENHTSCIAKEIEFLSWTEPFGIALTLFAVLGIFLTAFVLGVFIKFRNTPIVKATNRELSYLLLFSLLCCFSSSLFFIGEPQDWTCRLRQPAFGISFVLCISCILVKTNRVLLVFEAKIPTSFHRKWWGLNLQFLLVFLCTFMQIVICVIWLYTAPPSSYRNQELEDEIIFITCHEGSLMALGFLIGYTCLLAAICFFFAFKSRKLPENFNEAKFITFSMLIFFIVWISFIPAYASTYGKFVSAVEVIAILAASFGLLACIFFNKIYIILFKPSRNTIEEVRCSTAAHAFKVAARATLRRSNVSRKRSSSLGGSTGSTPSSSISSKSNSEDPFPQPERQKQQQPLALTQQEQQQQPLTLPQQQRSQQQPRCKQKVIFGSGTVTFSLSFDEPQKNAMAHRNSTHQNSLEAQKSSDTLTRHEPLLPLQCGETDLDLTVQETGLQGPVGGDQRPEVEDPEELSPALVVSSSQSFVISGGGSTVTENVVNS
Protocol: The CaSR gene was prepared in accordance with the method described in Example 1 of WO 07/55393. Using the recombinant plasmid obtained, human CaSR expression plasmid hCaSR/pcDNA3.1 was prepared.
293E cells (HEK293 cells expressing EBNA1, ATCC No. CRL-10852) were cultured in DMEM (Dulbecco's Modified Eagle's Medium containing […], NACALAI TESQUE, INC.) containing 10% fetal calf serum, in the presence of 250 μg/ml of G418. The cells were spread on a Petri dish of 10 cm diameter in 1.8×10^6 cells/15 ml. After the cells were allowed to stand in a CO2 incubator (5% CO2, 37° C.) for 24 hours, human CaSR expression plasmid hCaSR/pcDNA3.1 was transfected with a transfection reagent Mirus TransIT 293 (Takara Bio Inc.). After the cells were allowed to stand in the CO2 incubator for 24 hours, the cells were collected by DMEM containing 10% fetal calf serum and plated on a poly-D-lysine coated 384 well plate (Falcon) in 15,000 cells/well. After the cells were allowed to stand in the CO2 incubator for 24 hours, the medium was removed. Then, 50 μL/well of Ca^2+ fluorescence indicator Calcium 4 Assay Kit (Molecular Devices) that was dissolved in an assay buffer (146 mM NaCl, 5 mM KCl, 1 mM MgSO4, 1 mg/ml glucose, 20 mM HEPES (pH 7.2) and 1.5 mM CaCl2) was added thereto, and allowed to stand at 37° C. for an hour and then at room temperature for 30 minutes to load the fluorescence indicator. The 384 well plate described above was transferred to FLIPR (Molecular Devices), and 12.5 μL/well of a compound that was dissolved in a 0.1% BSA containing-assay buffer was added thereto. Changes in fluorescence intensity were monitored for 3 minutes. Compound No. 20 was purchased from Bachem.

[3] = measured in a manner similar to Example III, Table 6
[4] = 293E cells expressing human CaSR, 1.5 mM CaCl2 assay buffer, Table 5

N[C@@H](CCC(=O)Nc1cc(Cl)cc(S(=O)(=O)O)c1O)C(=O)O [Compound 7, N^5-(5-chloro-2-hydroxy-3-sulfophenyl)-L-glutamine]
Relative Value (amount of GLP-1 secreted, buffer control = 1) ([1]; sample 20 mM): 2.90 | Relative Value (amount of CCK secreted, buffer control = 1) ([2]; sample 2 mM): 1.99

Cc1c(Cl)cc(S(=O)(=O)O)cc1NC(=O)CC[C@H](N)C(=O)O [Compound 22, N^5-(3-chloro-2-methyl-5-sulfophenyl)-L-glutamine]
Relative Value (amount of GLP-1 secreted, buffer control = 1) ([1]; sample 20 mM): 2.22 | Relative Value (amount of CCK secreted, buffer control = 1) ([2]; sample 2 mM): 2.49

COC(=O)[C@@H](N)CCC(=O)Nc1cccc(S(=O)(=O)O)c1 [Compound 44, 3-[(4S)-4-amino-5-methoxy-5-oxopentanamido]benzene-1-sulfonic acid]
EC50 (human CaSR; [3]): 23 nM

N[C@@H](CCC(=O)Nc1cccc(S(=O)(=O)O)c1)C(=O)O [Compound 1, N^5-(3-sulfophenyl)-L-glutamine]
Relative Value (amount of GLP-1 secreted, buffer control = 1) ([1]; sample 20 mM): 1.82 | Relative Value (amount of CCK secreted, buffer control = 1) ([2]; sample 20 mM): 2.16

CCOC(=O)[C@@H](N)CCC(=O)Nc1cc(Cl)cc(S(=O)(=O)O)c1O [Compound 50, 3-[(4S)-4-amino-5-ethoxy-5-oxopentanamido]-5-chloro-2-hydroxybenzene-1-sulfonic acid]
EC50 (human CaSR; [3]): 4 nM

N[C@@H](COC(=O)Nc1cc(Cl)cc(S(=O)(=O)O)c1O)C(=O)O [Compound 34]
Relative Value (amount of GLP-1 secreted, buffer control = 1) ([1]; sample 7.5 mM): 2.88 | Relative Value (amount of CCK secreted, buffer control = 1) ([2]; sample 1 mM): 1.77

Cc1c(Cl)cc(NC(=O)CC[C@H](N)C(=O)O)cc1S(=O)(=O)O [Compound 21, N^5-(3-chloro-4-methyl-5-sulfophenyl)-L-glutamine]
Relative Value (amount of GLP-1 secreted, buffer control = 1) ([1]; sample 20 mM): 4.38 | Relative Value (amount of CCK secreted, buffer control = 1) ([2]; sample 2 mM): 4.54

N[C@@H](COC(=O)N(O)c1cccc(S(=O)(=O)O)c1)C(=O)O [Compound 43, 0-{[hydroxy(3-sulfophenyl)amino]carbonyl}-L-serine]
EC50 (human CaSR; [4]): 43 nM

N[C@@H](CCC(=O)N(O)c1cccc(S(=O)(=O)O)c1)C(=O)O [Compound 42, N^5-hydroxy-N^5-(3-sulfophenyl)-L-glutamine]
EC50 (human CaSR; [4]): 31 nM

Cc1c(Cl)cc(NC(=O)OC[C@H](N)C(=O)O)cc1S(=O)(=O)O [Compound 33, O-{[(3-chloro-4-methyl-5-sulfophenyl)amino]carbonyl}-L-serine]
Relative Value (amount of GLP-1 secreted, buffer control = 1) ([1]; sample 7.5 mM): 1.87 | Relative Value (amount of CCK secreted, buffer control = 1) ([2]; sample 0.1 mM): 1.51

COC(=O)[C@@H](N)COC(=O)Nc1cc(Cl)c(C)c(S(=O)(=O)O)c1 [Compound 49, 5-({[(2S)-2-amino-3-methoxy-3-oxopropoxy]carbonyl}amino)-3-chloro-2-methylbenzene-1-sulfonic acid]
EC50 (human CaSR; [3]): 110 nM
